Assay results reported in PMC5537602, “TRPA1 channel mediates organophosphate-induced delayed neuropathy” (Cell Discovery, 2017).

Target: T1, TRPC4 (Homo sapiens, UniProt Q9UBN4)
T1 construct: expressed in transfected cells; host or cells: HEK293
T1 sequence (Q9UBN4 1-977): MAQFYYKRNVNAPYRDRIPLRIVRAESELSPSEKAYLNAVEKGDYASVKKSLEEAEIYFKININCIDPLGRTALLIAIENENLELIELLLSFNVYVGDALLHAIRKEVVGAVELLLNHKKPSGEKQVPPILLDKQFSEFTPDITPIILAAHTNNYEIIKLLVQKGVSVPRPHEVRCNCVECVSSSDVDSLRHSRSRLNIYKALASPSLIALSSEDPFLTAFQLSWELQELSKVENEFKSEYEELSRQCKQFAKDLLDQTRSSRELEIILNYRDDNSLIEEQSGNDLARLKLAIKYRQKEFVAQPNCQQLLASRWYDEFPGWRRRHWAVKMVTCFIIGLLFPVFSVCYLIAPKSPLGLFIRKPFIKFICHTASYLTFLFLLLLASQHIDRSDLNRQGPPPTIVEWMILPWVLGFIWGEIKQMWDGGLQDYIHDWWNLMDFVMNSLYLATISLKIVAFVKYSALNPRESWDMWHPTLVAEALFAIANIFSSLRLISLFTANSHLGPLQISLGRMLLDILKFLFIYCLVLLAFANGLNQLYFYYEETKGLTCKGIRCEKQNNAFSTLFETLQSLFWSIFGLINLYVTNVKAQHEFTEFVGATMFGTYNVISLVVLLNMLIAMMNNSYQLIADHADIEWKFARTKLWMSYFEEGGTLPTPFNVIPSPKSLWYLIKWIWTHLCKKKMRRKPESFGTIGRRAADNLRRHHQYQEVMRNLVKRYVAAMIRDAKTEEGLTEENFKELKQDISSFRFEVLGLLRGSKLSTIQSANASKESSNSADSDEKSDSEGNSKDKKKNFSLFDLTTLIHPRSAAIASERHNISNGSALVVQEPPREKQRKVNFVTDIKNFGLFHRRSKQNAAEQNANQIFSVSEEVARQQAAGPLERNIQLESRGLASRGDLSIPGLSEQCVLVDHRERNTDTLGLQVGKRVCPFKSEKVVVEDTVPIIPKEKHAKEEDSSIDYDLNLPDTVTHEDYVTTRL
Assay: Calcium fluorescence signal, HEK293 cells overexpressing TRPC4
Format: cell-based
Details: 10 μM
Protocol: Figure S3. Specificity of malathion for TRPA1 channels. (A-F) Time course of the fluorescence signal induced by malathion (Mala, 10 μM) and the indicated positive agonists (10 μM) in HEK293 cells overexpressing TRPV1 (A), TRPV3 (B), TRPV4 (C), TRPM8 (D), TRPC4 (E) and TRPC5 (F) channels. The fluorescence signals are scaled as F/F0. EC indicates external solution. […]
cells for each tested TRP channel. All bars are presented as the mean ± SEM. […]

Compound: CCOC(=O)CC(SP(=S)(OC)OC)C(=O)OCC (stereo not drawn) [malathion, S-[1,2-bis (ethoxycarbonyl)ethyl] O, O-dimethyl phosphorodithioate]
- activation of TRPC4: could not activate
